Laboratory results: ChEMBL document CHEMBL5154893, “Design, Synthesis, and Biological Evaluation of Potent 20S Proteasome Activators for the Potential Treatment of α-Synucleinopathies” (J Med Chem, 2022)

Key:
[1] = target: T1, 20S proteasome (Homo sapiens) (UniProt P49721+P20618+P28074+P28062+P28065+P28072+P25786+P25787+P25788+P25789+P28066+P60900+O14818+Q8TAA3+P40306+A5LHX3+P49720+P28070+Q99436); experiment: Activation of human 20S proteosome at trypsin-like site assessed as substrate degradation using Boc-LLR-AMC as flurogenic substrate preincubated for 15 mins followed by substrate addition and measured after 1 hr by spectrometric analysis; assay type: protein-complex assay
[2] = target: T1, 20S proteasome (Homo sapiens); experiment: Activation of human 20S proteosome at caspase-like site assessed as maximum fold change in substrate degradation using Z-LLE-AMC as flurogenic substrate preincubated for 15 mins followed by substrate addition and measured after 1 hr by spectrometric analysis relative to control; assay type: protein-complex assay; details: filed as activator
[3] = target: T1, 20S proteasome (Homo sapiens); experiment: Activation of human 20S proteosome assessed as maximum fold change in substrate degradation using Suc-LLVY-AMC/Z-LLE-AMC/Boc-LLR-AMC as flurogenic substrate preincubated for 15 mins followed by substrate addition and measured after 1 hr by spectrometric analysis relative to control; assay type: protein-complex assay; details: filed as activator
[4] = target: T1, 20S proteasome (Homo sapiens); experiment: Activation of human 20S proteosome at caspase-like site assessed as substrate degradation using Z-LLE-AMC as flurogenic substrate preincubated for 15 mins followed by substrate addition and measured after 1 hr by spectrometric analysis; assay type: protein-complex assay
[5] = target: T1, 20S proteasome (Homo sapiens); experiment: Activation of human 20S proteosome at trypsin-like site assessed as maximum fold change in substrate degradation using Boc-LLR-AMC as flurogenic substrate preincubated for 15 mins followed by substrate addition and measured after 1 hr by spectrometric analysis relative to control; assay type: protein-complex assay; details: filed as activator
[6] = target: T1, 20S proteasome (Homo sapiens); experiment: Activation of human 20S proteosome at chymotrypsin like site assessed as maximum fold change in substrate degradation using Suc-LLVY-AMC as flurogenic substrate preincubated for 15 mins followed by substrate addition and measured after 1 hr by spectrometric analysis relative to control; assay type: protein-complex assay; details: filed as activator
[7] = target: T1, 20S proteasome (Homo sapiens); experiment: Activation of human 20S proteosome assessed as substrate degradation using Suc-LLVY-AMC/Z-LLE-AMC/Boc-LLR-AMC as flurogenic substrate preincubated for 15 mins followed by substrate addition and measured after 1 hr by spectrometric analysis; assay type: protein-complex assay
[8] = target: T1, 20S proteasome (Homo sapiens); experiment: Activation of human 20S proteosome at chymotrypsin like site assessed as substrate degradation using Suc-LLVY-AMC as flurogenic substrate preincubated for 15 mins followed by substrate addition and measured after 1 hr by spectrometric analysis; assay type: protein-complex assay
[9] = organism: Homo sapiens; experiment: Activation of human 20S-proteosome mediated degradation of full length wild type alpha-synuclein at 15 uM incubated for 45 mins by Western blot analysis relative to control; details: filed as activator
[10] = organism: Homo sapiens; experiment: Activation of human 20S-proteosome mediated full length alpha-synuclein degradation by measuring remaining protein at 15 uM incubated for 45 mins by Western blot analysis relative to control
[11] = organism: Homo sapiens; experiment: Activation of human 26S proteosome assessed as increase in fold change in proteolytic degradation using SUC-ANW-AMC/Z-LLE-AMC/Boc-LRRAMC as flurogenic substrate at 80 uM preincubated for 15 mins followed by substrate addition and measured after 1 hr by spectrometric analysis relative to control; details: filed as activator
[12] = test system: HEK293T; experiment: Activation of 20S proteasome mediated full length alpha-synuclein A53T mutant degradation expressed in HEK293T cells assessed as residual protein at 15 uM incubated for 24 hrs by Western blot analysis relative to control; assay type: cell-based; details: Homo sapiens, filed as activator
[13] = test system: HEK293T; experiment: Activation of 20S proteasome mediated full length alpha-synuclein A53T mutant degradation expressed in HEK293T cells assessed as residual protein at 5 uM incubated for 24 hrs by Western blot analysis relative to control; assay type: cell-based; details: Homo sapiens
[14] = organism: Homo sapiens; experiment: Activation of human 20S-proteosome mediated degradation of full length wild type alpha-synuclein at 10 uM incubated for 45 mins by Western blot analysis relative to control
[15] = test system: HEK-293T; experiment: Cytotoxicity in human HEK293T cells assessed as reduction in cell viability at 15 uM incubated for 16 hrs by CellTiter-glo assay; assay type: toxicity, cell-based
[16] = organism: Homo sapiens; experiment: Activation of human 20S-proteosome mediated full length alpha-synuclein degradation by measuring remaining protein at 5 uM incubated for 45 mins by Western blot analysis relative to control
[17] = organism: Homo sapiens; experiment: Activation of human 20S-proteosome mediated full length alpha-synuclein degradation by measuring remaining protein at 10 uM incubated for 45 mins by Western blot analysis relative to control
[18] = organism: Homo sapiens; experiment: Activation of human 20S-proteosome mediated full length alpha-synuclein degradation by measuring remaining protein at 2.5 uM incubated for 45 mins by Western blot analysis relative to control

Row | Structure (SMILES) | EC200 ([1]; filed as activator) [µM] | fold change (FC) [2] | fold change (FC) [3] | EC200 ([4]; filed as activator) [µM] | fold change (FC) [5] | fold change (FC) [6] | EC200 ([7]; filed as activator) [µM] | EC200 ([8]; filed as activator) [µM] | EC200 [1] [µM] | EC200 [4] [µM] | EC200 [7] [µM] | EC200 [8] [µM] | further results
1 | Nc1cccc(CN2c3ccccc3Sc3ccc(Cl)cc32)c1 | 9.2 | 10 | 8 | 3.8 | 10 | 9 | 3.6 | 6.5 |  |  |  |  | 
2 | CN(C)CCCN1c2ccccc2Sc2ccc(Cl)cc21 |  |  | 4 |  |  | 8 | 13.5 | 7 | > 80 | > 80 |  |  | Activity [9]: 80%; Activity ([10]; filed as activator): 34%; fold change (FC) [11]: 2
3 | N#CCCCCN1c2ccccc2Sc2ccc(Cl)cc21 |  |  |  |  |  |  |  |  | > 80 | > 80 | > 80 | > 80 | 
4 | CCOC(=O)[C@]1(c2ccccc2)N=C(c2ccc(OC)cc2)N(Cc2ccccc2)[C@@H]1c1ccc(NCc2ccccc2)cc1 |  |  |  |  |  |  |  |  |  |  |  |  | Activity [10]: 22%
5 | COC(=O)c1ccc(CN2c3ccccc3Sc3ccc(Cl)cc32)cc1 | 2.6 | 7 | 9 | 2.7 | 15 | 1.2 | 1.4 | 1.9 |  |  |  |  | Activity [12]: 25%; Activity ([10]; filed as activator): 33%; fold change (FC) [11]: 2
6 | Clc1ccc2c(c1)N(Cc1ccccc1)c1ccccc1S2 | 3.1 |  | 2 |  | 2 | 3 | 1.5 | 2.8 |  | > 80 |  |  | 
7 | COC(=O)c1cccc(CN2c3ccccc3Sc3ccc(Cl)cc32)c1 | 1.9 | 4 | 6 | 9.7 | 8 | 6 | 2.4 | 2.4 |  |  |  |  | 
8 | COc1cccc(CN2c3ccccc3Sc3ccc(Cl)cc32)c1 | 5.4 | 4 | 4 | 1.3 | 2 |  | 1.5 |  |  |  |  | > 80 | 
9 | CN(C(=O)CCN1c2ccccc2Sc2ccc(Cl)cc21)c1ccc(F)cc1 |  |  |  |  |  |  |  |  | > 80 | > 80 | > 80 | > 80 | 
10 | O=C(CCN1c2ccccc2Sc2ccc(Cl)cc21)N(c1ccc(F)cc1)c1ccc(F)cc1 | 0.3 | 9.4 | 11 | 1.8 | 6 | 9.4 | 0.4 | 0.7 |  |  |  |  | Activity [13]: 67%; Activity [14]: 73%; Activity [15]: > 80%; Activity [16]: 51%; Activity [17]: 27%; Activity [18]: 69%; Activity [10]: 19%
11 | O=C(CCN1c2ccccc2Sc2ccc(Cl)cc21)Nc1ccccc1 | 80 |  | 2.5 |  | 2 |  | 40 |  |  | > 80 |  | > 80 | 
12 | NC(=O)CCCCN1c2ccccc2Sc2ccc(Cl)cc21 |  |  |  |  |  |  |  |  | > 80 | > 80 | > 80 | > 80 | 
13 | CC(C)(C)OC(=O)c1ccc(CN2c3ccccc3Sc3ccc(Cl)cc32)cc1 |  |  |  |  |  |  |  |  | > 80 | > 80 | > 80 | > 80 | 
14 | O=[N+]([O-])c1cccc(CN2c3ccccc3Sc3ccc(Cl)cc32)c1 | 1.6 | 12 | 8 | 1.2 | 8 | 9 | 1.1 | 1.1 |  |  |  |  | 
15 | CC(=O)Oc1ccc(CN2c3ccccc3Sc3ccc(Cl)cc32)cc1 |  |  |  |  |  |  |  |  | > 80 | > 80 | > 80 | > 80 | 
16 | CN(C)C(=O)CCN1c2ccccc2Sc2ccc(Cl)cc21 |  |  |  |  |  |  |  |  | > 80 | > 80 | > 80 | > 80 | 
17 | Oc1ccc(CN2c3ccccc3Sc3ccc(Cl)cc32)cc1 |  |  |  |  |  |  |  |  | > 80 | > 80 | > 80 | > 80 | 
